# Assay results: ChEMBL document CHEMBL1201862, “PubChem BioAssay data set” (2004)
# Calls of active or inactive are those of the source.
# Experiments:
# [1] = test system: SN12K1; assay: cells; type: functional; conditions: Homo sapiens
# [2] = test system: P388/ADR; assay: cells; type: functional; conditions: Mus musculus
# [3] = test system: P388; assay: cells; type: functional; conditions: Mus musculus
# [4] = A cytotoxicity screen of small molecule inhibitors of the PhoP region in Salmonella typhi identified in the primary screen. [Related pubchem assays: 1850, 1864, 1985 ]; type: functional
# [5] = test system: Streptococcus; assay: Group A Streptococcus viability loss, dose response, counter-screen for streptokinase expression inhibitor project, luminescence, BacTiterGlo (AID 1915); type: functional, organism-based;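 also: potency for reduction of bacterial viability or growth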
# [6] = test system: Streptococcus sp. 'group A'; assay: growth inhibition of control SK(-) GAS strain, dose response, counter-screen for streptokinase expression inhibitor project, luminescence, kanamycin, BacTiterGlo, confirmation (AID 1900); type: functional, organism-based
# [7] = target: T1, Leucine aminopeptidase (Plasmodium falciparum 3D7, UniProt Q8IL11); assay: P. falciparum M17LAP inhibitors, primary screen, biochemical, fluorogenic H-Leu-NHMec substrate, 1536-well (AID 1619); type: functional
# T1 sequence (Q8IL11 whole entry): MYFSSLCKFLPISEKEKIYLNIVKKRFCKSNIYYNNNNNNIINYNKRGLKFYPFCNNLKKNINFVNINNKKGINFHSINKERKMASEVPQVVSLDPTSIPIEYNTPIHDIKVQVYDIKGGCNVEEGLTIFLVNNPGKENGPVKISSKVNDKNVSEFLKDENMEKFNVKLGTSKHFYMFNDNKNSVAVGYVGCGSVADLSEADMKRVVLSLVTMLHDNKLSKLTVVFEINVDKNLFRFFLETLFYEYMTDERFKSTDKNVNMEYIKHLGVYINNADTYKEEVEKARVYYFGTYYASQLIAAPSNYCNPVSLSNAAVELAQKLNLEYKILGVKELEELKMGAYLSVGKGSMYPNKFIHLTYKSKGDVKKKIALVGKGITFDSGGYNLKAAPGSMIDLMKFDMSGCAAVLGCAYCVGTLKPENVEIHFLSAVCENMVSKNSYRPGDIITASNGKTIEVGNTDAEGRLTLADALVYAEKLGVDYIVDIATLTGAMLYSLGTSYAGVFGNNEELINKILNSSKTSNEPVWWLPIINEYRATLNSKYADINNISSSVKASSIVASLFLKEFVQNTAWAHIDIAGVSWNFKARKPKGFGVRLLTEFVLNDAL
# [8] = target: T2, Carboxy-terminal domain RNA polymerase II polypeptide A small phosphatase 1 (Homo sapiens, UniProt Q9GZU7); assay: inhibitors of CTDSP1, concentration-response testing, biochemical assay, absorbance-based, actives from ultra-high-throughput screening (AID 540297); type: functional
# T2 sequence (Q9GZU7 whole entry): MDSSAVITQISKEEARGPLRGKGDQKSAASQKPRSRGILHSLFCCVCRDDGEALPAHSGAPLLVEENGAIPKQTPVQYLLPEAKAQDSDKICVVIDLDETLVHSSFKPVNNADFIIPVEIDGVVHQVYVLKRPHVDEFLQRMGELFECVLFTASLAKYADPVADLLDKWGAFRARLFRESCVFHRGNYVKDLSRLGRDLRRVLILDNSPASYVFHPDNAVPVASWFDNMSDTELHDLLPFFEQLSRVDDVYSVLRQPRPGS
# [9] = target: T3, Zinc finger protein mex-5 (Caenorhabditis elegans, UniProt Q9XUB2); assay: MEX-5/TCR-2 RNA interaction inhibitors, dose response, biochemical, C. elegans, fluorescence polarization (AID 1960)
# T3 sequence (Q9XUB2 whole entry): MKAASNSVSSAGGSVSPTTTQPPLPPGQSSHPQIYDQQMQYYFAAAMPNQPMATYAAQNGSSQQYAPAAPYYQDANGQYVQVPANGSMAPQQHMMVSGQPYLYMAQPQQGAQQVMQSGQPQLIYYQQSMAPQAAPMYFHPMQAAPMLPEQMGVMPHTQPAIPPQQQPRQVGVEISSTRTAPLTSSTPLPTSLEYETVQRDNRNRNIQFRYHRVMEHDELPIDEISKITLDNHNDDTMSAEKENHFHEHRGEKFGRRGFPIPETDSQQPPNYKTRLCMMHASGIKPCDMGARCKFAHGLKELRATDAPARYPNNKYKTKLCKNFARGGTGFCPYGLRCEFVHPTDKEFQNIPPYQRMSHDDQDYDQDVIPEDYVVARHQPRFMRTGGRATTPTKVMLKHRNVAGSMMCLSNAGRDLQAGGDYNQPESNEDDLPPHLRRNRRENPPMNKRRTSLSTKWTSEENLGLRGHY
# [10] = target: T4, RNA-binding protein pos-1 (Caenorhabditis elegans, UniProt G5EF15); assay: inhibitors of POS-1/mex-3 RNA binding, dose response, biochemical, fluorescence polarization (AID 1964);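 also: purified POS-1 fused to maltose binding protein made in E. coli; potency of compounds blocking POS-1 binding to fluorescent RNA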
# T4 sequence (G5EF15 whole entry): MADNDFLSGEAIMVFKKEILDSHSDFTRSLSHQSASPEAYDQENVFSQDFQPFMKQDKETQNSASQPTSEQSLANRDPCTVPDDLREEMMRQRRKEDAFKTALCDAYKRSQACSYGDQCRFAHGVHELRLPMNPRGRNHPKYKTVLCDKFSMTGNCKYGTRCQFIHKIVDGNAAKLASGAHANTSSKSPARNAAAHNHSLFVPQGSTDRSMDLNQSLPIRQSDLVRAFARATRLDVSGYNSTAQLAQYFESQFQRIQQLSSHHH
# [11] = test system: H9c2; assay: cells; type: functional, cell-based; conditions: Rattus norvegicus, H9c2, Myocardium;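 also: confirmatory concentration-response retest of ultra-high-throughput screening hits for modulation of myocardial damage; cell death induced by hydrogen peroxide oxidative stress; compound pretreatment for 60 min then peroxide exposure for 2 h; potency is for protecting the cells against peroxide damage rather than for killing them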
# [12] = target: 26S proteasome non-ATPase regulatory subunit 14 (Homo sapiens, UniProt O00487); assay: inhibition of proteasome subunit RPN11 – biochemical, fluorescence polarization, uHTS hits, confirmation (AID 602368); type: functional
# [13] = target: Prothrombin (Bos taurus, UniProt P00735); assay: thrombin inhibition, dose response, biochemical, fluorescence polarization, uHTS hits (AID 602369); type: functional
# [14] = target: T5, Corticotropin-releasing factor receptor 2/Corticotropin-releasing factor-binding protein (Homo sapiens, UniProt P24387+Q13324); assay: activators of CRF receptor 2 with binding protein – uHTS hits, confirmation (AID 602473); type: functional; conditions: read-out: EC50_Mean
# T5 sequence (Q13324 whole entry): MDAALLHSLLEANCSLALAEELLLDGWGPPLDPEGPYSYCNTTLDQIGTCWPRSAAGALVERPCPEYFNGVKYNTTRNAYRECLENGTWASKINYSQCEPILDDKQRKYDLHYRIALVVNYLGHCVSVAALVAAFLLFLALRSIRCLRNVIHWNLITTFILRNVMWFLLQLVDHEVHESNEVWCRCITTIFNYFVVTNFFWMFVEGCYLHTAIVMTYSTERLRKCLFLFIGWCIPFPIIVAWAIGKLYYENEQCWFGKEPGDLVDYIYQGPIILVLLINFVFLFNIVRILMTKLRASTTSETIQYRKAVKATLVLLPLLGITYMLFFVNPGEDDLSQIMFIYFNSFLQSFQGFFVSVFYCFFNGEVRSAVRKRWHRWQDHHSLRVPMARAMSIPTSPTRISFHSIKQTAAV
# T5 sequence (P24387 whole entry): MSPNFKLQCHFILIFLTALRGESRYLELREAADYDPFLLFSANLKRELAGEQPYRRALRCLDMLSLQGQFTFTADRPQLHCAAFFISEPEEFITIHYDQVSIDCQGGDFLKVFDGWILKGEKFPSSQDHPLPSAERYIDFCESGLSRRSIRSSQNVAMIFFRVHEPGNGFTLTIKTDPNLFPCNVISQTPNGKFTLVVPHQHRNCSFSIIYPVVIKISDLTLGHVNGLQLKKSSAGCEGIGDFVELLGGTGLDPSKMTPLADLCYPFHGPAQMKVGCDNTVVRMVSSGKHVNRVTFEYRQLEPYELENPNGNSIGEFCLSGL
# [15] = target: 72 kDa type IV collagenase (Homo sapiens, UniProt P08253); assay: Dose Response validation of uHTS RPN11 inhibitor hits using a MMP-2 Fluorescence assay.; type: functional
# [16] = target: Nonstructural protein 1 (Influenza A virus, UniProt Q194T2); type: functional, Influenza A virus (A/California/07/2009(H1N1))
# Sequence of Nonstructural protein 1 (Q194T2 whole entry): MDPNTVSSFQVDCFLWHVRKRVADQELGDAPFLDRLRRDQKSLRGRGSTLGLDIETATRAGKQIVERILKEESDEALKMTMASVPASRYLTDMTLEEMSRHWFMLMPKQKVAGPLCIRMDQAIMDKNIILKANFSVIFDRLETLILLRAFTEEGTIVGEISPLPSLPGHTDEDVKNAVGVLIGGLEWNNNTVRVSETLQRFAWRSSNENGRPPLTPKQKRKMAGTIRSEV
# Sequence of 26S proteasome non-ATPase regulatory subunit 14 (O00487 whole entry): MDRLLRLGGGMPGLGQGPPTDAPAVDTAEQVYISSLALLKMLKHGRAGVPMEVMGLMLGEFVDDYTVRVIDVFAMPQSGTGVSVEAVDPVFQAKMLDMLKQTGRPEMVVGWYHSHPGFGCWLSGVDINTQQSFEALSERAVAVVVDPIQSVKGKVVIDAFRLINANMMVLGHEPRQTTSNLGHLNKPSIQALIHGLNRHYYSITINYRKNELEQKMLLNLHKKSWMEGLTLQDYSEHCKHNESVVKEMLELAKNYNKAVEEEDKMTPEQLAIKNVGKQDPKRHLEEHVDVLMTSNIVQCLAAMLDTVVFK
# Sequence of 72 kDa type IV collagenase (P08253 whole entry): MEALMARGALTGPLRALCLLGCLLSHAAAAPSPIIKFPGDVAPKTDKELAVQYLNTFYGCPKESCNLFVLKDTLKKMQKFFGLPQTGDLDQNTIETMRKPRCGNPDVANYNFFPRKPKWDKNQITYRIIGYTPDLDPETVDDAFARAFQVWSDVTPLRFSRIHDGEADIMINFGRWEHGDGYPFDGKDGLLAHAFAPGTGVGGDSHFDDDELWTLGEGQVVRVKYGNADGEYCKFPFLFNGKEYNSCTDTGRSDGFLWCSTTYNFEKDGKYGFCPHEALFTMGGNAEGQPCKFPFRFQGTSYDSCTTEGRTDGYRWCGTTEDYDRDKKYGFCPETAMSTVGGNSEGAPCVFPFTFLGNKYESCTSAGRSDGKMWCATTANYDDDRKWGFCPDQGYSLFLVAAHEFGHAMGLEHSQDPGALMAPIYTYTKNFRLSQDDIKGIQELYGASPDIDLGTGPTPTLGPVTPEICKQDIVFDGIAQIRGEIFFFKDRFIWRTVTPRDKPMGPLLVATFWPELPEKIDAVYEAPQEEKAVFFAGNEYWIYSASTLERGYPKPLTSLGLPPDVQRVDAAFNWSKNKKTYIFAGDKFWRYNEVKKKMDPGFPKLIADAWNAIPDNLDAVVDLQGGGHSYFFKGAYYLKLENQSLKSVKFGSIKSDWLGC
smiles,measurement,setting,value
Nc1ccc2cc(S(=O)(=O)O)cc(O)c2c1/N=N/c1ccc(NC(=O)Nc2ccc(/N=N/c3c(N)ccc4cc(S(=O)(=O)O)cc(O)c34)c(S(=O)(=O)O)c2)cc1S(=O)(=O)O,GI50,[1],> 100 µM (inactive)
same,GI50,[2],95.5 µM (inactive)
same,GI50,[3],45.2 µM (inactive)
CC(NCc1ccc(Cl)cc1)C(O)c1ccccc1 (configuration not stated),EC50,[4],> 50 µM (active)
Cc1nnc(SCC2=C(C(=O)O)N3C(=O)C(NC(=O)Cn4nc(C(F)F)c(Cl)c4C)C3SC2)s1 (configuration not stated),EC50,[5],0.228 µM (active)
same,EC50,[6],< 0.06 µM (active)
same,IC50,[7],13.9 µM (active)
NC(=NOC(=O)c1cccc([N+](=O)[O-])c1)c1cccc([N+](=O)[O-])c1,IC50,[8],11.2 µM (active)
CCc1c(O)cc(=O)n(-c2ccccc2)c1-c1ccccc1,IC50,[7],23.5 µM (active)
CSc1ccc(/C=C(\C(=O)O)c2ccc(S(=O)(=O)N3CCCC3)s2)cc1,IC50,[8],5.2 µM (active)
C[N@+]12CC[C@H](CC1)C(=C(c1ccccc1)c1ccccc1)C2,IC50,[8],3.04 µM (active)
Cc1cccc(-n2ccnc2CN2CCN(C3CCCC3)C(CCO)C2)c1 (configuration not stated),EC50,[4],> 50 µM (active)
C=CCn1c(SCC(=O)NCc2ccc3c(c2)OCO3)nnc1C1COc2ccccc2O1 (configuration not stated),IC50,[7],< 1 µM (active)
N=C(NOC(=O)COc1ccc2ccccc2c1)c1ccccn1,EC50,[4],> 50 µM (active)
COC(=O)c1ccc(NC(S)=NNC(=O)c2ccccc2)cc1,EC50,[4],> 50 µM (active)
CCOC(=O)N1CCN(CCC(=O)c2ccc(Br)cc2)CC1,EC50,[4],> 50 µM (active)
Cc1ccc(-c2nc3cc(C(N)=O)ccc3c(O)c2O)cc1,EC50,[9],8.44 µM (inconclusive)
same,EC50,[10],7.27 µM (active)
same,IC50,[11],11.3 µM (active)
O=C(Nc1ccc2[nH]c(-c3ccc(Br)o3)nc2c1)c1ccco1,EC50,[4],> 50 µM (active)
Nc1ccc(/C=C/C(=O)c2ccco2)cc1,IC50,[12],18 µM (active)
same,IC50,[13],27.5 µM (active)
same,EC50,[14],7.4 µM (active)
same,IC50,[15],> 100 µM (inactive)
O=C1Nc2ccc(S(=O)(=O)NCc3ccccn3)c3cccc1c23,IC50,[8],8.42 µM (active)
N/C(=N\O)N/N=C/c1cc2c(cc1Cl)OCO2,GI50,[1],31.3 µM (inactive)
same,GI50,[2],23.7 µM (inactive)
same,GI50,[3],29.3 µM (inactive)
C=CCN1C(=O)/C(=C\Nc2cccc([N+](=O)[O-])c2)C(=O)N(CCCC)C1=O,IC50,[12],34 µM (active)
same,IC50,[13],42.7 µM (active)
same,IC50,[15],> 100 µM (inactive)
Oc1nc(CSc2nnc(-c3cccnc3)n2C2CCCCC2)nc2ccccc12,IC50,[11],22.1 µM (active)
O=C(COC(=O)c1cncc(Br)c1)Nc1nnc(-c2ccccc2)o1,IC50,[8],6.29 µM (active)
C=CCCC(=O)N1C[C@H]2CON(C)[C@H]2C[C@H]1c1ccc(N2CCCCC2)cc1,IC50,[12],52.2 µM (active)
same,IC50,[13],57.2 µM (active)
same,IC50,[15],> 100 µM (inactive)
O=C(CCCN1CCC(C(O)c2ccc(F)cc2)CC1)c1ccc(F)cc1 (configuration not stated),GI50,[1],56.4 µM (inactive)
same,GI50,[2],46.1 µM (inactive)
same,GI50,[3],38.3 µM (inactive)
O=CNc1cc(-c2ccc(C(=O)NC3CC3)cc2)cn2c(-c3ccc(F)c(Cl)c3)cnc12,IC50,[11],> 79 µM (inactive)
COc1cc(CN2c3ccccc3C(=O)CS2(=O)=O)cc(OC)c1,IC50,[12],> 100 µM (inactive)
same,IC50,[13],> 100 µM (inactive)
same,IC50,[15],> 100 µM (inactive)
Cc1c2c(cc3c1[nH]c1ccccc13)C(c1ccc(Cl)cc1)=NCC2,GI50,[1],0.284 µM (active)
same,GI50,[2],0.428 µM (active)
same,GI50,[3],0.398 µM (active)
Cc1c2cc[n+](C)cc2c(C)c2c1[nH]c1ccccc12,GI50,[1],0.416 µM (active)
same,GI50,[2],55.5 µM (inactive)
same,GI50,[3],0.887 µM (active)
Cc1cc(N2CCN(C3CCCCC3)CC2)nc2cccc(O)c12,EC50,[4],> 50 µM (active)
same,IC50,[16],> 100 µM (active)
COc1ccc(NC(=O)Cn2c(-c3ccc(OC)cc3)cn(-c3ccc(C)cc3)c2=O)cc1,IC50,[12],35.2 µM (active)
same,IC50,[13],48.5 µM (active)
same,IC50,[15],> 100 µM (inactive)
COc1nc(C(Cl)(Cl)Cl)c(Cl)c(OC)c1Cl [PENCLOMEDINE],GI50,[1],28.3 µM (inactive)
same,GI50,[2],40.6 µM (inactive)
same,GI50,[3],8.61 µM (inactive)
